US20160375127A1, “Method of producing an inactivated lentivirus, especially HIV, vaccine, kit and method of use” (LABORATOIRE BIODIM, priority 2013, published 2016)
“Also recorded” adds a separate entry of the source.

Legend:
[1] = system: HIV-1 LAV; experiment: p24 titration of virus harvested from treated HeLa-LAV producer cells; format: cell-based; settings: HeLa-LAV cells treated during virus production
Description: (§1) In order to examine the infectivity of viruses produced in the presence of these various compounds, the supernatants were harvested, titrated for viral protein p24 release using the Alliance HIV-1 p24 Antigen ELISA (PerkinElmer, http://www.perkinelmer.com/) and titrated to measure the quantity of infectious particles per ml by infecting TZM-bl indicator cells (from the AIDS reagent program, NIH) expressing luciferase under a Tat-dependent promoter. Alternatively for titration of infectious particles, target cells for HIV-1 infection such as MT4 cells were used.
as §1, with “2—Production of Viral particles in the presence of compounds. […] In” for “In”, “are” for “were”, “harvested, stored at −80° C. and” for “harvested,”, “cells” for “cells (from the AIDS reagent program, NIH)”, “are used as described above in 1a.” for “were used.”

[2] = system: HIV-1 LAV; experiment: Infectivity of virions from treated HeLa-LAV cells on TZM indicator cells, luciferase assay; format: cell-based
Description: as §1
as §1, with “2—Production of Viral particles in the presence of compounds. […] In” for “In”, “are” for “were”, “harvested, stored at −80° C. and” for “harvested,”, “cells” for “cells (from the AIDS reagent program, NIH)”, “are used as described above in 1a.” for “were used.”

[3] = system: HIV-1 LAV; experiment: Infectivity of virions from treated HeLa-LAV cells on MT4 cells, cytopathic assay CellTiter-Glo; format: cell-based; settings: virus stock diluted up to 2000 times
Description: as §1
(§2) Usually 1/2000 dilution of the virus stock is used to infect MT4 target cells. Productive HIV-1 infection is determined after 5 days using the CellTiter-Glo® luminescent reagent (Promega, France) to quantify MT4 cell viability. Alternatively, productive infection can be estimated by quantitation of p24 antigen as described in paragraph 2 above.

[4] = system: HIV-1 Gag; experiment: Western blot of Gag maturation and CA p24 content in producer cell lysates and virions, anti-p24 antibody; format: cell-based; settings: HeLa-LAV cell lysates and defective virions
[5] = biological target: T1, HIV-1 integrase (Human immunodeficiency virus type 1 group M subtype B, UniProt P12497); experiment: Size exclusion chromatography of recombinant HIV-1 integrase on Superdex 200 PC 3.2/30; format: biochemical; settings: untreated IN elutes as dimer, 64 KD MW; 8 μM IN with 20 μM compound
T1 construct: Superdex 200 16/600 PG column for IN full length; made in house
Description: Multimerization of HIV-1 Integrase upon treatment with inactivating compounds was performed using size exclusion chromatography on a Superdex 200 PC 3.2/30 column (GE Healthcare), as described in the method section. Aldolase (158,000 MW), Conalbumin (75,000 MW), Carbonic Anhydrase (29,000 MW), and Ribonuclease A (13,700 MW) were used as protein markers for calibration.
was performed on a Superdex 200 PC 3.2/30 column (GE Healthcare) using an AKTA chromatography system (GE Healthcare) at 0.04 mL/min at room temperature. 20 μL of sample was injected on the column previously equilibrated in Integrase buffer (50 mM HEPES pH 7.5 containing 1M NaCl, 7 mM CHAPS, 5 mM MgCl2, 10% glycerol). 1 μM Compound was added to the mobile phase in order to avoid integrase-inhibitor dissociation during the separation.

[6] = system: HIV-1 NL4-3; experiment: Infectivity of NL4-3 virus from treated transfected 293T cells on MT4 cells, CellTiter-Glo; format: cell-based; settings: 293T transfection, compound 48 hours, supernatant diluted 2000 times, MT4 viability
Description: FIG. 4: Infectivity of wt NL4-3 viruses harvested from 293T transfected cells after treatment with the indicated compounds and tested by infection of MT4 cells using the cytopathic assay CellTiter-Glo®.
2 hours after transfection indicated compounds were added during virus production for 48 hours at the indicated concentrations. […] Viruses released in cell supernatants were harvested and tested for virus production by p24 assay, and virus infectivity by infection of MT4 cells and cytophatic assay using CellTiter-Glo® (Promega) according manufacturer's instructions.
293T cells (2.2 10^6 cells) are transfected with plasmids harboring full length cloned HIV proviral DNA such as pNL4-3 or any other HIV proviral clone including autologous HIV molecular clones using DNA transfection reagent such as X-tremeGENE 9 reagent (Roche). Cells are washed 3 h later, trypsinized and diluted at 0.3 10^6 cells per ml. 5 10^5 cells in 1.6 ml fresh culture media are distributed into 6 wells plate and the volume is adjusted to 2 ml by adding 0.4 ml of media containing compounds and DMSO per well, or DMSO only as control. As reference compounds capable to fully inactivate HIV during virus production by producer cells, Protease inhibitors such as Indinavir or Saquinavir are used as additional controls. Final concentration for each compound, including reference protease inhibitor compounds, is kept equivalent to 5 times its EC50 concentration previously calculated into a multiple round assay as in (a) and DMSO is kept at 0.5% final concentration. Supernatants containing HIV virions are collected 48 h post-transfection and stored at −80° C. All Viral stocks are quantified for p24 antigen using the Alliance HIV-1 p24 Antigen ELISA (PerkinElmer, http://www.perkinelmer.com/) and titrated to measure the quantity of infectious particles per ml by infecting TZM-bl indicator cells.
as §2, with “above. Full inactivation of the virus stock by compounds is estimated by results obtained in the presence of compound compared on the one hand to DMSO alone which indicates the 100% infectious virus stock (0% inactivation), and on the other hand to Protease inhibitor treatment which indicates the 100% virus stock inactivation.” for “above.”

[7] = system: HIV-1 NL4-3; experiment: Western blot of NL4-3 virus lysates with anti-p24, anti-RT and anti-IN antibodies; format: cell-based; settings: anti-IN, versus wt virus treated with DMSO
[8] = system: HIV-1 NL4-3; experiment: CA p24 titration of NL4-3 virus produced by 293T cells in the presence of compound; format: cell-based; settings: 1 μM compound in 0.5% DMSO, 48 hours; untreated virus 19.6 μg/ml
Description: The assay shown in FIG. 6 measures the concentration of whole virus particles (p24 ng/ml on the Y axis) captured on plates coated with various anti-HIV antibodies at three different concentrations as indicated in the X axis. […] As indicated, two different dilutions of each of these virus preparations were incubated in the antibody-coated plates with the indicated antibodies, for 1 hour. Unbound virions were removed by washing. Virions captured by the indicated antibodies were lysed and quantitated by p24 assay by ELISA (Innogenetics/Ingen, Ghent Belgium). The anti-HIV antibodies used were a neutralizing polyclonal IgG F6 Gri/Ii, an irrelevant IgG F6 Neg (negative control), two monoclonal anti-HIV Env antibodies, 2G12 (neutralizing) and 4B3 (non-neutralizing), and an irrelevant monoclonal antibody (Synagis) as negative control.
(§3) To do so, HIV-1 NL4-3 virus was produced upon 293T cell transfection using Opti-Mem® reagent (Life Technologies) according manufacturer's instructions. […] Cell supernatants containing virus were ultracentrifuged through sucrose cushion. Virus pellets were resuspended in cell culture medium, aliquoted and titrated for CA p24 amount using anti-p24 antibody (Innotest HIV antigen/mAB Immunogenetics/Ingen Ghent, Belgium or Alliance® HIV-I p24 ELISA kit PerkinElmer).

[9] = system: HIV-1 NL4-3; experiment: Check of inactivation: multiple-round infection assay of MT4 human cells during five days; format: cell-based; settings: virus produced with 1 μM compound
Description: as §3

| SMILES | amount of p24 produced ([1]; versus DMSO) | infectivity of viruses produced in the presence of compound [2] | infectivity / cytopathic effect of viruses produced in the presence of compound [3] | perturbation of Gag maturation and CA p24 content [4] | inactivation of NL4-3 virus produced in the presence of compound [6] | further results |
| --- | --- | --- | --- | --- | --- | --- |
| Cc1nc2cc(-c3cccnc3)ccc2c(-c2ccc3c(c2)CCCO3)c1C(OC(C)(C)C)C(=O)O (stereo not drawn) [MUT145212] | comparable to that in the presence of DMSO | non-infectious | totally impaired for such cytopathic effect | could not detect any perturbation of Gag maturation and CA p24 content | – | MW at which HIV-1 integrase is eluted (IN tetramer) [5]: 130 KD MW |
| Cc1nc2c(-c3cccc(C(N)=O)c3)cccc2c(-c2ccc3c(c2)CCCO3)c1C(OC(C)(C)C)C(=O)O (stereo not drawn) [MUT145227] | comparable to that in the presence of DMSO | non-infectious | totally impaired for such cytopathic effect | could not detect any perturbation of Gag maturation and CA p24 content | – | – |
| Cc1nc2cc(C(N)=O)ccc2c(-c2ccc3c(c2)CCCO3)c1C(OC(C)(C)C)C(=O)O (stereo not drawn) [MUT145240] | – | – | – | – | – | MW at which HIV-1 integrase is eluted (IN tetramer) [5]: 130 KD MW |
| Cc1nc2c(c(-c3ccc4c(c3)CCCO4)c1C(OC(C)(C)C)C(=O)O)CCCC2 (stereo not drawn) [MUT145509] | comparable to that in the presence of DMSO | non-infectious | totally impaired for such cytopathic effect | could not detect any perturbation of Gag maturation and CA p24 content | inactivated | – |
| Cc1sc(-c2ccncc2)c(C2=CCC(C)(C)CC2)c1[C@H](OC(C)(C)C)C(=O)O [MUT148237] | – | – | – | – | inactivated | protein content and maturation profile of treated virus [7]: protein content and maturation profile identical to wt virus; also recorded: exactly the same profile, with normal protein content and protein maturation than fully infectious virus; CA p24 titer of virus inactivated during production [8]: 17.6 µg/mL; excess of inactivated virus over untreated virus needed to infect 100,000 cells [9]: more than 10,000 times; extent of virus inactivation [9]: > 99.99%; amount of p24 of virus supernatant needed for infection of 50% of MT4 cells ([9]; untreated virus 0.11 pg): 5,139 pg |
| Cc1nnc(C(=O)NC(C)(C)c2nc(C(=O)NCc3ccc(F)cc3)c(O)c(=O)n2C)o1 [Raltegravir, reference compound] | – | comparable to viruses produced in the presence of DMSO | fully infectious | – | no effect | – |
| CC(C)(C)NC(=O)[C@@H]1C[C@@H]2CCCC[C@@H]2CN1C[C@@H](O)[C@H](Cc1ccccc1)NC(=O)[C@H](CC(N)=O)NC(=O)c1ccc2ccccc2n1 [Saquinavir, reference compound] | – | non infectious | totally impaired for such cytopathic effect | – | inactivated | amount of p24 produced [1]: 30%; protein content and maturation profile of treated virus [7]: strong defect in maturation; protein content and maturation profile of treated virus ([7]; listed as saquinavir): strong defect in maturation and absence of RT and IN mature proteins |
